Columns and labels:
[1] = Stability of ^177Lu labeled complexes in PBS by radio-HPLC; type: physicochemical; conditions: incubation at room temperature over 120 h in PBS (pH 7.4) or PBS with 3 mg/mL ascorbic acid
Experimental: Exemplary compounds of the present application were labeled with ^177Lu to evaluate stability of the compounds after radionuclide labeling. Briefly, 4 μL exemplary compounds in DMSO stock solution (2000 μM) and 2 mCi ^177Lu (ITM Isotope Technologies Munich) were mixed together in 0.5 M NaOAc buffer (20-50 μL, pH=4.5), followed by incubation at 95° C. for 15 min. Then the labeled complexes were subject to radio-TLC analysis (a polyamide film using methanol and 1M ammonium acetate as the mobile phase, v/v: 4:1, detected by Mini Scan) and radio-HPLC analysis (column: Shim-pack GIST 5 μm 4.6*150 mm; buffer A: 0.2% formic acid H2O; buffer B: 0.1% formic acid acetonitrile; flow rate: 1 mL/min; gradient: 0-5 min: 10% B to 95% B; then 5-8 min: 95% B).
After radionuclide labeling, the complexes were diluted to ˜1.5 mCi/0.30 mL by PBS (pH 7.4) or PBS with 3 mg/mL ascorbic acid (pH 7.4). Then the diluted samples were incubated at room temperature, followed by stability analysis via radio-HPLC at 0, 4, 24, 48, 72, 120 h of incubation, respectively. FIG. 1 illustrates stability analysis of a representative complex ^177Lu—I-7.

[2] = system: ASPC-1 tumor-bearing mice; experiment: Biodistribution of radionuclide labeled complexes in ASPC-1 tumor-bearing mice; type: in vivo, BALB/c nude mice
Procedure, shortened: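 BALB/c nude mice bore subcutaneous flank xenografts from ~4×10^6 NTSR-1-expressing cells, grown 2-4 weeks to ~0.05-0.50 g. Labeled compound, ~30-50 μCi (30-250 μCi/nmol specific activity) in 0.9% NaCl, was given by tail vein; organs were excised, weighed and γ-counted at various times for % ID and % ID/g.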

HT-29 tumor-bearing mice = experiment: Biodistribution of radionuclide labeled complexes in HT-29 tumor-bearing mice; type: in vivo, BALB/c nude mice; conditions: Blood
Experimental: The BALB/c nude mice (Charles River, Beijing) were utilized to establish the xenografted model for biodistribution study. All animal care and experimental procedure were performed by following the animal protocols approved by the ethics committee of China Institute of Radiation Protection.
Briefly, each mouse was inoculated with approximately 4×10^6 ASPC-1 cells (human pancreatic cancer cell line) or HT-29 cells (human colorectal adenocarcinoma cell line) expressing human NTSR-1 by subcutaneous injection at rear flank. After inoculation, the xenografted tumors were allowed to grow for ˜2-4 weeks till the tumor weight reached to about 0.05 to 0.50 g (0.20 g in average).
Biodistribution studies were performed by administrating the radionuclide labeled test compound at a dose of ˜30-50 μCi (100 μL in 0.9% NaCl, ˜1.11-1.85 MBq, with specific activity 30-250 μCi/nmol) to each animal through tail vein injection.
At different time points after the administration, the mice treated with each compound were euthanized. The tissues and organs of the animals in each group were collected, excised, weighed, and analyzed in a PerkinElmer 2480 WIZARD2γ counter, and the percent injected dose (% ID) and % ID/g of each organ or tissue were calculated.

COc1cccc(OC)c1-c1cc(C(=O)NC2(C(=O)O)C3CC4CC(C3)CC2C4)nn1-c1ccc(OCCCN(C)CCCN(C)C(=O)CN2CCN(CC(=O)[O-])CCN(CC(=O)[O-])CCN(CC(=O)[O-])CC2)cc1C(C)C.[177Lu+3] (centres unmarked) [^177Lu-I-7]
stability of the labeled complex [1]: remained stable and no significant degradation was detected
tumor AUC over 72 hours compared to ^177Lu—C2 [2]: significantly higher tumor AUC
% ID/g (1 h) Blood ([2]; Blood, 1 h): 9.79 ± 1.66 % ID/g
% ID/g (4 h) Blood ([2]; Blood, 4 h): 1.8 ± 0.62 % ID/g
% ID/g (24 h) Blood ([2]; Blood, 24 h): 0.07 ± 0.01 % ID/g
% ID/g (72 h) Blood ([2]; Blood, 72 h): 0.01 ± 0 % ID/g
% ID/g (1 h) Femur ([2]; Femur, 1 h): 1.65 ± 0.23 % ID/g
% ID/g (4 h) Femur ([2]; Femur, 4 h): 0.49 ± 0.25 % ID/g
% ID/g (24 h) Femur ([2]; Femur, 24 h): 0.12 ± 0.04 % ID/g
% ID/g (72 h) Femur ([2]; Femur, 72 h): 0.06 ± 0.03 % ID/g
% ID/g (1 h) Heart ([2]; Heart, 1 h): 3.47 ± 0.56 % ID/g
% ID/g (4 h) Heart ([2]; Heart, 4 h): 0.58 ± 0.32 % ID/g
% ID/g (24 h) Heart ([2]; Heart, 24 h): 0.29 ± 0.14 % ID/g
% ID/g (72 h) Heart ([2]; Heart, 72 h): 0.08 ± 0.01 % ID/g
% ID/g (1 h) Intestine ([2]; Intestine, 1 h): 2.53 ± 0.58 % ID/g
% ID/g (4 h) Intestine ([2]; Intestine, 4 h): 1.69 ± 0.45 % ID/g
% ID/g (24 h) Intestine ([2]; Intestine, 24 h): 0.62 ± 0.04 % ID/g
% ID/g (72 h) Intestine ([2]; Intestine, 72 h): 0.19 ± 0.07 % ID/g
% ID/g (1 h) Kidney ([2]; Kidney, 1 h): 2.85 ± 0.45 % ID/g
% ID/g (4 h) Kidney ([2]; Kidney, 4 h): 2.05 ± 0.48 % ID/g
% ID/g (24 h) Kidney ([2]; Kidney, 24 h): 1.2 ± 0.17 % ID/g
% ID/g (72 h) Kidney ([2]; Kidney, 72 h): 0.48 ± 0.12 % ID/g
% ID/g (1 h) Liver ([2]; Liver, 1 h): 3.93 ± 0.43 % ID/g
% ID/g (4 h) Liver ([2]; Liver, 4 h): 1.88 ± 1.00 % ID/g
% ID/g (24 h) Liver ([2]; Liver, 24 h): 0.84 ± 0.09 % ID/g
% ID/g (72 h) Liver ([2]; Liver, 72 h): 0.23 ± 0.01 % ID/g
% ID/g (1 h) Lung ([2]; Lung, 1 h): 3.12 ± 1.25 % ID/g
% ID/g (4 h) Lung ([2]; Lung, 4 h): 1.1 ± 0.49 % ID/g
% ID/g (24 h) Lung ([2]; Lung, 24 h): 0.43 ± 0.14 % ID/g
% ID/g (72 h) Lung ([2]; Lung, 72 h): 0.13 ± 0.1 % ID/g
% ID/g (1 h) Muscle ([2]; Muscle, 1 h): 1.1 ± 0.3 % ID/g
% ID/g (4 h) Muscle ([2]; Muscle, 4 h): 0.27 ± 0.2 % ID/g
% ID/g (24 h) Muscle ([2]; Muscle, 24 h): 0.34 ± 0.3 % ID/g
% ID/g (72 h) Muscle ([2]; Muscle, 72 h): 0.011 ± 0.01 % ID/g
% ID/g (1 h) Pancreas ([2]; Pancreas, 1 h): 0.67 ± 0.28 % ID/g
% ID/g (4 h) Pancreas ([2]; Pancreas, 4 h): 0.24 ± 0.22 % ID/g
% ID/g (24 h) Pancreas ([2]; Pancreas, 24 h): 0.29 ± 0.21 % ID/g
% ID/g (72 h) Pancreas ([2]; Pancreas, 72 h): 0.02 ± 0.01 % ID/g
% ID/g (1 h) Spleen ([2]; Spleen, 1 h): 0.63 ± 0.19 % ID/g
% ID/g (4 h) Spleen ([2]; Spleen, 4 h): 0.58 ± 0.15 % ID/g
% ID/g (24 h) Spleen ([2]; Spleen, 24 h): 0.23 ± 0.11 % ID/g
% ID/g (72 h) Spleen ([2]; Spleen, 72 h): 0.06 ± 0.01 % ID/g
% ID/g (1 h) Stomach ([2]; Stomach, 1 h): 1.01 ± 0.82 % ID/g
% ID/g (4 h) Stomach ([2]; Stomach, 4 h): 0.58 ± 0.59 % ID/g
% ID/g (24 h) Stomach ([2]; Stomach, 24 h): 0.21 ± 0.08 % ID/g
% ID/g (72 h) Stomach ([2]; Stomach, 72 h): 0.04 ± 0.01 % ID/g
% ID/g (1 h) Tumor ([2]; Tumor, 1 h): 15.27 ± 8.72 % ID/g
% ID/g (4 h) Tumor ([2]; Tumor, 4 h): 19.97 ± 10.42 % ID/g
% ID/g (24 h) Tumor ([2]; Tumor, 24 h): 22.83 ± 1.14 % ID/g
% ID/g (72 h) Tumor ([2]; Tumor, 72 h): 18.07 ± 0.98 % ID/g
ratio of tumor AUC verse normal organ AUC ([2]; compared to ^177Lu—C2): significantly improved
% ID/g (1 h) Blood (HT-29 tumor-bearing mice; 1 h): 16.51 ± 0.56 % ID/g
% ID/g (4 h) Blood (HT-29 tumor-bearing mice; 4 h): 2.85 ± 1.23 % ID/g
% ID/g (24 h) Blood (HT-29 tumor-bearing mice; 24 h): 0.06 ± 0.02 % ID/g
% ID/g (72 h) Blood (HT-29 tumor-bearing mice; 72 h): 0.03 ± 0 % ID/g
% ID/g (120 h) Blood (HT-29 tumor-bearing mice; 120 h): 0.01 ± 0 % ID/g

From patent US20240287046A1, “COMPOUNDS AND RADIOLIGANDS FOR TARGETING NEUROTENSIN RECEPTOR AND USES THEREOF” (Full-Life Technologies HK Limited, priority 2022, published 2024)
